According to patent US6468522B1, “Controlled release of thioamide moiety-containing therapeutic agents” (priority 1999, dated 2002):

Tests used:
[1] = Kinetics following intravenous injection of PEG-S-S-UC781 in rabbits; assay type: in vivo; conditions: rabbit
Procedure: The wavelength for detection of UC781 is 290 nm.
An in-vivo experiment was done in duplicate in rabbits (about 3.6 kg, New Zealand white, female), performed according to protocol #I99-054 approved by the IACUC of UMDNJ-Robert Wood Johnson Medical School. […] Blood samples were drawn from the auricular artery of the opposite ear prior to and at predetermined time points after injection. Immediately after the blood was drawn, 1 ml was mixed with 2 ml of acetonitrile, vortexed, kept on ice for 10 min and then centrifuged at 1000×g for 10 min at 4° C. The supernatant was collected and analyzed by reverse phase HPLC, as described above. Blood levels were determined with time by HPLC with and without the DTT reductive cleavage step (FIG. 7).

[2] = Kinetics following intramuscular injection of PEG-S-S-UC781 in mice; assay type: in vivo
Procedure: An in-vivo experiment was done twice in mice (about 25 g, […]), performed according to protocol #I00-001, approved by the IACUC. […] Twenty mg, equivalent to 0.5 mg of UC781, was dissolved in 1 ml of PBS and injected into the leg muscle. At each time point, a mouse was euthanized, blood was collected and the injected muscle was removed. The blood samples were treated with 2 volumes of acetonitrile as described above. The tissue samples were homogenized with 1 ml of PBS and then treated with 2 volumes of acetonitrile, as above. The samples were then analyzed by reverse phase HPLC. […] Recovery and extraction efficiency from the muscle was tested by injection into the excised muscle from a freshly euthanized mouse.

HIV-RT = HIV-RT (Human immunodeficiency virus type 1 group M subtype B, UniProt P03366); experiment: Reverse transcriptase (RT) inhibition assay; assay type: biochemical; conditions: for UC781 concentration found by RT assay: predicted 30 nM
Procedure: UC781 standard solutions were prepared in DMSO. The stock solution of HIV-RT (13.5 Units/μl) was diluted to 25 mUnits/μl in buffer comprising 50 mM Tris-HCl, pH 8.0, 1 mM DTT, 0.01% bovine serum albumin (BSA). Each assay tube contained 40 μl of a solution comprising 50 mM Tris-HCl, pH 8.0, 4 mM DTT, 12.4 mM MgCl2, 50 mM KCl, 0.01% BSA, 10 μg/ml poly(A), 0.01 mM dTTP and […] [α-^32P]dTTP, 2 μl of diluted RT and 3 μl of sample dissolved in DMSO. Samples were incubated at 37° C. for 30 minutes. The polymerization reaction was stopped by adding 0.15 mg/ml of salmon sperm DNA and chilling on ice. An aliquot (20 μl) of each reaction mixture was spotted onto square stamped GF/C filter paper (12.5 cm in diameter) presoaked with 10% trichloroacetic acid (TCA). After the spots were dry, the paper was rinsed with 50 ml of ice cold 10% TCA twice, 50 ml of ice cold water three times and then once with 25 ml of ice cold 95% ethanol in a Buchner funnel. The paper was dried, cut into squares and each square was counted in 4 ml of LSC cocktail (National Diagnostics).
The reverse transcriptase inhibition (RT) assay was used to confirm that the compound released in blood is truly active UC781. […] As a control, authentic UC781 was run on the HPLC column and the peak was collected at 24.2 minutes. […] An aliquot of each HPLC fraction, providing a predicted concentration of 30 nM in the RT assay, was analyzed.

in vitro = conditions: rabbit
Procedure: UC781 was analyzed using an HPLC reverse phase column, PRP-1 (Hamilton, Reno, Nev.), under the following condition: mobile phase A: 20% acetonitrile, mobile phase B: 90% acetonitrile, flow rate: 1 ml/min. Gradient: 0-2 min, 100% A; 2-20 min, linear gradient from 100% A to 100% B; 20-28 min, 100% B; 28—30 min, linear gradient from 100% B to 100% A; 30-35 min, 100% A. Under these experimental conditions, the retention time for UC781 is 24.2 min. The wavelength for detection of UC781 is 290 nm.
To each 1 ml sample of EDTA-treated rabbit blood, 2 ml of acetonitrile was added, mixed and kept on ice for 10 min. The mixture was centrifuged at 1000×g for 10 min. The supernatant was collected and an aliquot (300 μl) was injected into the reverse phase column. […] After centrifugation, 400 μl of the supernatant was analyzed, either without or with DTT pretreatment (3 mM for 2 hours at room temperature).
However, prior reduction with DTT should give the total concentration of UC781 since the conjugated UC781 is converted into the free form prior to HPLC. […] Recovery through the extraction procedure was determined by spiking a known amount of either free or conjugated UC781 into EDTA-treated rabbit blood prior to acetonitrile extraction.

[3] = Reductive release of drug from disulfide conjugate (DTT or glutathione, TLC); assay type: physicochemical; conditions: organic phase
Procedure: III Release of UC781 from mPEG-S—S-UC781. […] Then, 0.5 ml of 6 mM dithiothreitol (DTT) in DCM was added to the conjugate solution.
After 2 hours at room temperature, the reaction mixture was taken to dryness by speed vacuum.
In an alternate procedure to the above, cysteamine may be used in place of 1-amino-2-methyl-2-propanethiol, which produces a UC781 conjugate (PEG-CO—NH—CH2—CH2—S—S—UC781) with less sterically hindered thiol groups and therefore with a ˜100-fold faster release under reducing conditions.

Compound | UC781 concentration in plasma higher than in matched whole blood ([1]; EDTA-treated blood, duplicate sample) | half-life of UC781 in the bloodstream ([1]; after iv PEG-S-S-UC781) | level of UC781 in tissue samples ([2]; mouse injected muscle, after 1 hour) | UC781 in blood samples ([2]; mouse, im, HPLC) | UC781 concentration found by RT assay (HIV-RT; HPLC peak fraction of rabbit blood 5 min after iv PEG-S-S-UC781) [nM] | activity of compound recovered from blood (HIV-RT; RT assay, blood versus standard) | UC781 concentration found by RT assay (HIV-RT; authentic UC781 standard HPLC fraction) [nM] | recovery at 10 min, 10 µg/mL (in vitro) [%] | release of drug from conjugate by DTT [3]
CC(C)=CCOc1cc(NC(=S)c2ccoc2C)ccc1Cl [UC781, N-[4-chloro-3-(3-methyl-2-butenyloxy)phenyl]-2-methyl-3-furancarbothioamide] | about 10% | several minutes | more than 10% | below the detection limit | 26 | fully active | 27 | 113 | –
O=c1[nH]c(=S)ccn1[C@@H]1O[C@H](CO)[C@@H](O)[C@H]1O [4-thiouridine, 4-Thiouridine] | – | – | – | – | – | – | – | – | reductively released
